Where two headings read alike, the source gives them in different places.
Columns and labels:
[1] = test system: mouse fibroblasts BALB/3T3; assay: Sulforhodamine B antiproliferative assay, BALB/3T3; type: cell-based; details: compound 0.5 mM, 72 h, read-out: % Proliferation inhibition ± SD
Method: (§1) The BALB/3T3 cell line was cultured in Dulbecco MEM (Gibco, Scotland) supplemented with 10% (v/v) FBS (Sigma-Aldrich, Poznań, Poland) and 2 mM L-glutamine (Sigma-Aldrich, Poznań, Poland). The MCF-10A cell line was cultured in F-12 Nutrient mixture supplemented with 5% (v/v) horse serum (both Gibco, Scotland), 0.05 μg/mL cholera toxin, 10 μg/mL insulin, 0.5 μg/mL hydrocortisone, and 20 ng/mL EGFH (all Sigma-Aldrich, Poznań, Poland). The Eph4-Ev cell line was cultured in Dulbecco MEM supplemented with 2 mM L-glutamine, 10% (v/v) calf bovine serum (ATCC Rockville, Maryland, USA) and puromycin (Sigma-Aldrich, Poznań, Poland). The HEC A10 cell line was cultured in OPTI-MEM (IIET, Wroclaw, Poland) supplemented with 2 mM L-glutamine and 5% (v/v) FBS. All culture media were additionally supplemented with antibiotics: 100 U/mL penicillin and 100 μg/mL streptomycin (both Polfa-Tarchomin, Poland). During all experiments, cells were maintained in a humid atmosphere at 37°C and 5% CO2 and passaged twice a week using EDTA-Trypsin (pH 8; IIET, Wroclaw, Poland) solution as a detachment agent.
(§2) This assay was used as previously described with minor modifications. Briefly, 24 h before adding the tested compounds, cells were seeded in 96-well plates (Sarstedt, Germany) in appropriate culture medium with 10^5 […] (100 μL/well). Cells were treated with each compound in at least four concentrations in the range from 500–4 μM for 72 h. Next, cells were fixed with 50 μL/well of 50% (w/v) trichloroacetic acid (Avantor Performance Materials, Gliwice, Poland). After a 1-hour incubation, the plates were washed several times with tap water, and 50 μL of 0.4% (w/v) solution of sulforhodamine B (Sigma-Aldrich, Germany) in 1% (v/v) acetic acid (Avantor Performance Materials, Gliwice, Poland) was added to each well. After a 30-min incubation at room temperature, unbound dye was washed out with 1% (v/v) acetic acid, whereas bound dye was solubilized with 10 mM unbuffered TRIS (Avantor Performance Materials, Gliwice, Poland) solution. The entire procedure was performed using an EL-406 washing station (BioTek Instruments, USA). Next, absorbance at 540 nm was measured using a Synergy H4 Hybrid Reader (BioTek Instruments, USA). Compounds at each concentration were tested in triplicate in a single experiment, and each experiment was repeated three times independently. The results were calculated using the Prolab-3 system based on Cheburator 0.4 software and was presented as proliferation inhibition percentages at the highest concentration used.

[2] = biological target: T1, purified recombinant urease from H. pylori (Helicobacter pylori, UniProt B5Z674); assay: Inhibition of purified recombinant H. pylori urease (phenol-hypochlorite, Lineweaver-Burk); type: biochemical; details: 50 mM phosphate buffer pH 7.5, 37°C, 0.1–2.5 mM urea, competitive reversible inhibition
T1 construct: plasmid pGEM::ureOP, which encodes the entire urease gene cluster, was used to produce recombinant H. pylori urease; made in house; host or cells: E. coli Rosetta2 (DE3) + pGEM::ureOP
T1 sequence (B5Z674 whole entry, looked up): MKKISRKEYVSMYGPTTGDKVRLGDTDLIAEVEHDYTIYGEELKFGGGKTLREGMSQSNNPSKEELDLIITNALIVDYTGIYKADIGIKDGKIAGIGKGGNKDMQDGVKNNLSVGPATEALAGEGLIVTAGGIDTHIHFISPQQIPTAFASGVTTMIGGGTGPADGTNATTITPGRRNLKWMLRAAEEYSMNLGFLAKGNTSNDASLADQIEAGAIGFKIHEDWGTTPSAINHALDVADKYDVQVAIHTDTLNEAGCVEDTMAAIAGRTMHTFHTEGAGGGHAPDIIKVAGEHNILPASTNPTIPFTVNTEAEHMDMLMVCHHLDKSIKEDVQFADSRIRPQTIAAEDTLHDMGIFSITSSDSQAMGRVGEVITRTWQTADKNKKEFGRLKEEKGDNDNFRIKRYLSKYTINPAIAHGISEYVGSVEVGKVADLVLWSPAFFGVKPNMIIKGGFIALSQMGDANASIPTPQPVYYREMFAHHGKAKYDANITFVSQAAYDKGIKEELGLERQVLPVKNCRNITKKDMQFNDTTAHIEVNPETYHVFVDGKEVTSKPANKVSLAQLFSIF
Method: The kinetic parameters of urease were determined by measuring the initial rates of the reactions in 50 mM phosphate buffer (pH 7.5) at 37°C. Ammonia was routinely quantified by the phenol hypochlorite method as reported previously.
Inhibition studies were conducted by initiating the enzymatic reaction with the addition of the enzyme into assay mixtures (200 μL total volume) containing increasing concentrations of inhibitors and 0.1–2.5 mM urea. After 15 min of incubation at 37°C, the reaction was stopped by adding phenol-hypochlorite reagents and the absorbance of the formed indophenol blue complexes was measured at 650 nm. The Ki values were determined from Lineweaver-Burk plots after testing at least five inhibitor concentrations in a range that depended on their inhibitory strength. The concentration of inhibitor that caused the loss of 50% of the enzyme’s activity (IC50) was determined from the measurements that were performed at a urea concentration of 0.6 mM and calculated using the linear regression of the urease activity versus the logarithm of the inhibitor concentrations.
The values of Ki and IC50 for all analyzed compounds were calculated using the appropriate equations in GraphPad Prism 5. Errors were reported with two significant digits, and each measured parameter was given with the same number of decimal places as its error [32].

[3] = test system: immortalized murine endothelial cell line from peripheral lymph node HEC A10; assay: Sulforhodamine B antiproliferative assay, HEC A10; type: cell-based; details: Mus musculus, compound 0.5 mM, 72 h, read-out: % Proliferation inhibition ± SD
Method: as §1, §2

[4] = biological target: T2, urease in intact H. pylori J99 (Helicobacter pylori, UniProt P69997); assay: Urease inhibition in whole cells of H. pylori J99; type: cell-based
T2 construct: In the intact H. pylori J99 cells, the urease susceptibility profile was similar to that of E. coli (pGEM::ureOP); endogenous in cells
T2 sequence (Q9ZMZ4 whole entry): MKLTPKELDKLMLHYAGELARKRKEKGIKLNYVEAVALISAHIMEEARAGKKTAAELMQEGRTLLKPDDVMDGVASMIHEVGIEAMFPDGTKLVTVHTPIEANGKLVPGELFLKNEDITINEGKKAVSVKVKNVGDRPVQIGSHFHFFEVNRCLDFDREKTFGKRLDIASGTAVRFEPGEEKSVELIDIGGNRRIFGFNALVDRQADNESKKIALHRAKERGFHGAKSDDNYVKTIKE
T2 sequence (P69997 whole entry): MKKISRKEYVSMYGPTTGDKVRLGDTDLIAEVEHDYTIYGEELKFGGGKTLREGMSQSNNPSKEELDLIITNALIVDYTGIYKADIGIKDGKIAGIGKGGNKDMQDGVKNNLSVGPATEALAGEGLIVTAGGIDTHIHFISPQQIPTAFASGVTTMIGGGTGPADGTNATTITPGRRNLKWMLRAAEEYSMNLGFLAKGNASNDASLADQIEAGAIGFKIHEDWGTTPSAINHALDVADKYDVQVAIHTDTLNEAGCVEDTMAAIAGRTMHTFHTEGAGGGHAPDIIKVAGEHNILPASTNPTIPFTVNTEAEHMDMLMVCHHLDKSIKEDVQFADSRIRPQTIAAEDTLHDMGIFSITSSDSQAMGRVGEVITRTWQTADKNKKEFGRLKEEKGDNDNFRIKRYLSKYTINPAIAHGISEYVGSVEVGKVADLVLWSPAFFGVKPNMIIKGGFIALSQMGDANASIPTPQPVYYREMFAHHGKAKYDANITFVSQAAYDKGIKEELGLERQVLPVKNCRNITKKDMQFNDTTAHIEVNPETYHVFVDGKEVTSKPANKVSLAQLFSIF

[5] = biological target: T3, urease in intact E. coli (pGEM::ureOP) cells (Helicobacter pylori, UniProt B5Z674); assay: Urease inhibition in whole cells of E. coli + pGEM::ureOP; type: cell-based; details: IC50 exceeding 2 mM considered not active
T3 construct: plasmid pGEM::ureOP, which encodes the entire urease gene cluster, was used to produce recombinant H. pylori urease; expressed in transfected cells; host or cells: E. coli Rosetta2 (DE3) transformed with pGEM::ureOP
T3 sequence (B5Z674 whole entry, looked up): as the sequence (B5Z674 whole entry, looked up) above
Method: The expression strain E. coli + pGEM::ureOP was cultured in 150 mL of LB broth (Biocorp, Poland) with 100 μg/mL ampicillin (Polfa, Tarchomin, Poland) at 37°C and induced with IPTG (0.75 mM) and Ni^2+ (0.75 mM) during the exponential growth phase, which was determined by the OD600 measurements (OD600 = 0.6). Further expression was conducted for 24 h at 22°C. The bacterial culture (1 mL) was harvested via centrifugation (2 min, 20 376 x g, 37°C) and washed three times with PBS. The pellets from 1-mL samples of the expression cell culture were resuspended in 100 μL of PBS. The hydrolysis of urea that is catalyzed by whole bacterial cells was performed in 96-well plates (Rotilabo, U-profile). The reaction progress curves were obtained by the addition of bacterial cells (1×10^9 CFU/mL final concentration) into mixtures (300 μL final volume) that contained 5 mM urea and various inhibitor concentrations that depended on their inhibitory strength. Alternatively, the reaction was initiated via the addition of a concentrated solution of urea after a 120-min preincubation of bacterial cells with the inhibitor. Samples (50 μL) of the reaction mixture were removed after the appropriate reaction time. The enzymatic reactions in the samples were terminated via the introduction of 100 μL of phenol-sodium nitroprusside solution, immediately followed by the addition of 100 μL of NaOH-hypochlorite solution. The absorption of indophenol blue was measured at 650 nm using a TECAN-Sunrise absorbance reader equipped with a gradient filter and Magellan software. The IC50 values were determined from the linear regression of the urease activity versus the logarithm of the inhibitor concentration. The reaction was studied in the absence and in the presence of the inhibitor. The influence of dimethylformamide (DMF), which was used as a solvent for several compounds, was also determined.

[6] = test system: human mammary gland MCF-10A; assay: Sulforhodamine B antiproliferative assay, MCF-10A; type: cell-based; details: compound 0.5 mM, 72 h, read-out: % Proliferation inhibition ± SD
Method: as §1, §2

[7] = test system: murine mammary gland epithelium Eph4-Ev; assay: Sulforhodamine B antiproliferative assay, Eph4-Ev; type: cell-based; details: Mus musculus, compound 0.5 mM, 72 h, read-out: % Proliferation inhibition ± SD
Method: as §1, §2

[8] = cells grown with urea, 2 h of preincubation with inhibitors in PBS under microaerobic conditions, read-out: IC502h PBS
[9] = cells grown with urea, 2 h of preincubation with inhibitors in growth medium under microaerobic conditions, read-out: IC502h medium
[10] = cells grown with urea, without preincubation, read-out: IC500
[11] = cells grown without urea, 2 h of preincubation with inhibitors in PBS under microaerobic conditions, read-out: IC502h PBS
[12] = cells grown without urea, without preincubation, read-out: IC500
[13] = IC500, without preincubation of cells with inhibitory compounds, 30-min reactions, 5 mM urea
[14] = IC502h PBS, 2 h of preincubation with inhibitors in PBS
[15] = read-out: IC500, without preincubation of cells with inhibitory compounds, 30-min reactions, 5 mM urea
[16] = read-out: IC502h PBS, 2 h of preincubation with inhibitors in PBS

| SMILES | inhibition at 500 µM [1] [%] | Ki ([2]; Ki) [µM] | inhibition at 500 µM [3] [%] | IC50 [4, 8] [µM] | IC50 [4, 9] [µM] | IC50 [4, 10] [µM] | IC50 [4, 11] [µM] | IC50 ([4]; cells grown without urea, preincubated cells, read-out: IC50) [µM] | IC50 [4, 12] [µM] | IC50 [5, 13] [µM] | IC50 [5, 14] [µM] | inhibition at 500 µM [6] [%] | inhibition at 500 µM [7] [%] | IC50 [5, 15] [µM] | IC50 [5, 16] [µM] | IC500 ([5]; without preincubation of cells with inhibitory compounds, 30-min reactions, 5 mM urea) | Ki [2] [µM] |
| --- | --- | --- | --- | --- | --- | --- | --- | --- | --- | --- | --- | --- | --- | --- | --- | --- | --- |
| CNCP(=O)(O)CN [Compound 7] | 0 | 20.9 ± 2 | 0 | 456 ± 45 | 574 ± 44 | > 2000 | 418 ± 48 | < 500 | 327 ± 68 | 880 ± 105 | 440 ± 61 | 0 | 3.9 ± 2.1 |  |  |  |  |
| NCP(=O)(O)CN [Compound 6, Bis(aminomethyl)phosphinic acid] | 3.2 ± 1.6 | 61 ± 9.2 | 7.7 ± 2.4 | > 2000 | > 2000 | > 2000 | 611 ± 63 |  | 1300 ± 239 |  |  | 0 | 0 | > 2000 | > 2000 | complete lack of inhibitory effects |  |
| CCCCCCCCNCP(=O)(O)CN [Compound 15] | 0 |  | 0 | 712 ± 28 | 276 ± 17 | 1010 ± 84 | 638 ± 22 |  | 1260 ± 53 |  |  | 1.8 ± 1.2 | 2.7 ± 1.1 | > 2000 | > 2000 |  | > 2000 |
| CNCP(=O)(O)O [Compound 1, N-methylaminomethylphosphonic acid] | 2.7 ± 1.8 | 38.3 ± 1.1 | 0 | 349 ± 29 | 202 ± 43 | 400 ± 8.7 | 598 ± 81 |  | 316 ± 18 | 164 ± 24 | 110 ± 21 | 0 | 1.3 ± 2.3 |  |  |  |  |
| CNCP(=O)(O)CNC [Compound 21, bis(N-methylaminomethyl)phosphinic acid] | 0 | 26.1 ± 1.8 | 0 | 549 ± 15 | 117 ± 7.4 | 443 ± 24 | 132 ± 21 |  | 581 ± 37 | 1260 ± 189 | 269 ± 39 | 0 | 2.2 ± 1.5 |  |  |  |  |
| CCCCCNCP(=O)(O)CN [Compound 12] |  | 43.1 ± 3.6 |  | 853 ± 93 | 806 ± 72 | 813 ± 61 | 917 ± 105 |  | 872 ± 68 | 1670 ± 232 | 475 ± 73 |  |  |  |  |  |  |
| CCCCNCP(=O)(O)CN [Compound 11] |  | 27 ± 2.1 |  | 816 ± 39 | 470 ± 38 | 733 ± 9.2 | 933 ± 206 |  | 881 ± 35 | 779 ± 99 | 284 ± 41 |  |  |  |  |  |  |
| CCCNCP(=O)(O)CN [Compound 9] | 0.7 ± 0.6 | 22.1 ± 2.1 | 2.2 ± 1.5 | 940 ± 59 | 553 ± 44 | 1500 ± 160 | 883 ± 96 |  | 772 ± 143 | 746 ± 94 | 306 ± 43 | 0 | 0 |  |  |  |  |
| CNCP(C)(=O)O [Compound 2] | 1.4 ± 1.1 | 61.6 ± 3.5 | 0 | 468 ± 21 | 274 ± 87 | 597.4 ± 5.2 | 852 ± 40 |  | 480 ± 79 | 573 ± 76 | 306 ± 48 | 0 | 1.1 ± 1 |  |  |  |  |

Reference: paper PMC5550016, “Aminophosphinates against Helicobacter pylori ureolysis—Biochemical and whole-cell inhibition characteristics” (PLoS ONE, 2017)
